Assay results published in patent US7834023B2 (Portola Pharmaceuticals, Inc., priority 2006, dated 2010).
pIC50: −log10 of the molar value.

Columns and labels:
[1] = test system: human platelet-rich plasma (PRP); assay: PRP assay: inhibition of ADP-mediated platelet aggregation in vitro; format: cell-based; conditions: Homo sapiens, Platelet, ADP-induced aggregation
Protocol: The effect of testing the compound according to the invention on ADP-induced human platelet aggregation was assessed in a 96-well microtiter assay (see generally the procedures in Jantzen, H. M. et al. (1999) Thromb. Hemost. 81:111-117) or standard cuvette light transmittance aggregometry using either human platelet-rich plasma (PRP) or human washed platelets.
For preparation of human platelet-rich plasma for aggregation assays, human venous blood was collected from healthy, drug-free volunteers into 0.38% sodium citrate (0.013 M, pH 7.0 final). Platelet-rich plasma (PRP) is prepared by centrifugation of whole blood at 160×g for 20 minutes at room temperature. The PRP layer is removed, transferred to a new tube, and the platelet count is adjusted, if necessary, to achieve a platelet concentration of ˜3×10^8 platelets/ml using platelet-poor plasma (PPP). PPP is prepared by centrifugation of the remaining blood sample (after removal of PRP) for 20 minutes at 800×g. This preparation of PRP can subsequently be used for aggregation assays in either a 96-well plate or standard cuvette aggregometry.
For cuvette light transmittance aggregation assays, serial dilutions (1:3) of test compounds were prepared in 100% DMSO in a 96 well V-bottom plate (final DMSO concentration in the cuvette was 0.6%). The test compound (3 μl of serial dilutions in DMSO) was preincubated with PRP for 30-45 seconds prior to initiation of aggregation reactions, which were performed in a ChronoLog aggregometer by addition of agonist (5 or 10 μM ADP) to 490 μL of PRP at 37° C. In some cases, light transmittance aggregometry was performed using 490 μL of washed platelets (prepared as described above) at 37° C., and aggregation was initiated by addition of 5 μM ADP and 0.5 mg/ml human fibrinogen (American Diagnostics, Inc., Greenwich, Conn.). The aggregation reaction is recorded for ˜5 min, and maximum extent of aggregation is determined by the difference in extent of aggregation at baseline, compared to the maximum aggregation that occurs during the five minute period of the assay. Inhibition of aggregation was calculated as the maximum aggregation observed in the presence of inhibitor, compared to that in the absence of inhibitor. IC50s were derived by non-linear regression analysis using the Prism software (GraphPad, San Diego, Calif.).
Inhibition of ADP-dependent aggregation was also determined in 96-well flat-bottom microtiter plates using a microtiter plate shaker and plate reader similar to the procedure described by Frantantoni et al., Am. J. Clin. Pathol. 94, 613 (1990). All steps are performed at room temperature. For 96-well plate aggregation using platelet-rich plasma (PRP), the total reaction volume of 0.2 ml/well includes 180 μl of PRP (˜3×10^8 platelets/ml, see above), 6 μl of either serial dilution of test compounds in 20% DMSO or buffer (for control wells), and 10 μl of 20×ADP agonist solution (100 μM). The OD of the samples is then determined at 450 nm using a microtiter plate reader (Softmax, Molecular Devices, Menlo Park, Calif.) resulting in the 0 minute reading. The plates are then agitated for 5 min on a microtiter plate shaker and the 5 minute reading is obtained in the plate reader. Aggregation is calculated from the decrease of OD at 450 nm at t=5 minutes compared to t=0 minutes and is expressed as % of the decrease in the ADP control samples after correcting for changes in the unaggregated control samples. IC50s were derived by non-linear regression analysis.

P2Y12 receptor = target: T1, P2Y12 receptor (Homo sapiens, UniProt Q9H244); assay: platelet ADP receptor binding assay (ARB): inhibition of [3H]2-MeS-ADP binding to platelets; conditions: [3H]2-MeS-ADP binding to apyrase-washed human platelets
T1 construct: endogenous in cells; host or cells: human platelets (outdated from blood banks or fresh), apyrase-washed, whole
Outline: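 Apyrase-washed human platelets (1×10^8 per well) were preincubated 5 min with serial compound dilutions in Hepes-Tyrode's/0.1% BSA/0.6% DMSO, then incubated 15 min at room temperature with 1 nM [3H]2-MeS-ADP. Filter-bound radioactivity gave specific binding (nonspecific: 10 μM 2-MeS-ADP), and IC50s came from non-linear regression.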

T1 sequence (Q9H244 whole entry): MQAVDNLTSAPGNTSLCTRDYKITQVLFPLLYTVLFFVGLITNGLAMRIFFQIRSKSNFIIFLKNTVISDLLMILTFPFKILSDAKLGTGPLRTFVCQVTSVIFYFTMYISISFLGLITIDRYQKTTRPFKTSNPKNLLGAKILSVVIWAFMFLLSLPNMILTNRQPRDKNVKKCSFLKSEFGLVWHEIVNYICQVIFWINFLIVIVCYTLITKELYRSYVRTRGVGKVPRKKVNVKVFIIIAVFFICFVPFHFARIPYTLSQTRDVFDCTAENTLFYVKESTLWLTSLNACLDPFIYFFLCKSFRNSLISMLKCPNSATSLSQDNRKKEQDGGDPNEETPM

SMILES	pIC50 [1]	pIC50 (P2Y12 receptor)
CNc1cc2[nH]c(=O)n(-c3ccc(C(=O)NC(C(=O)O)c4ccc(Cl)s4)c(C)c3)c(=O)c2cc1F (stereo not shown) [Compound 41, 2-(5-chlorothiophen-2-yl)-2-(4-(6-fluoro-7-(methylamino)-2,4-dioxo-1,2-dihydroquinazolin-3(4H)-yl)-2-methylbenzamido)acetic acid]	4.52 to 5.00	6.30 to 7.30
CNc1cc2[nH]c(=O)n(-c3ccc(C(=O)NC(c4noc(=S)[nH]4)c4ccc(Cl)s4)cc3)c(=O)c2cc1F (stereo not shown) [Compound 32, N-((5-chlorothiophen-2-yl)(5-thioxo-4,5-dihydro-1,2,4-oxadiazol-3-yl)methyl)-4-(6-fluoro-7-(methylamino)-2,4-dioxo-1,2-dihydroquinazolin-3(4H)-yl)benzamide]	> 5.00	6.30 to 7.30
CNc1cc2c(cc1F)C(=O)N(c1ccc(C(=O)NC(c3nnn[nH]3)c3ccc(C)s3)cc1)CO2 (stereo not shown) [Compound 61, 4-(6-fluoro-7-(methylamino)-4-oxo-2H-benzo[e][1,3]oxazin-3(4H)-yl)-N-((5-methylthiophen-2-yl)(1H-tetrazol-5-yl)methyl)benzamide]	4.52 to 5.00	> 7.30
CNc1cc2c(cc1F)C(=O)N(c1ccc(C(=O)NC(C(=O)O)c3ccc(Cl)s3)cc1)CO2 (stereo not shown) [Compound 56, 2-(5-chlorothiophen-2-yl)-2-(4-(6-fluoro-7-(methylamino)-4-oxo-2H-benzo[e][1,3]oxazin-3(4H)-yl)benzamido)acetic acid]	4.52 to 5.00	> 7.30
CNc1cc2c(cc1F)C(=O)N(c1ccc(C(=O)NC(CC(=O)O)c3ccc(Cl)s3)cc1)CO2 (stereo not shown) [Compound 79, 3-(5-chlorothiophen-2-yl)-3-(4-(6-fluoro-7-(methylamino)-4-oxo-2H-benzo[e][1,3]oxazin-3(4H)-yl)benzamido)propanoic acid]	> 5.00	6.30 to 7.30
CNc1cc2[nH]c(=O)n(-c3ccc(C(=O)NC(C(=O)OCCN4CCOCC4)c4ccc(Cl)s4)cc3)c(=O)c2cc1F (stereo not shown) [Compound 35, 2-morpholinoethyl 2-(5-chlorothiophen-2-yl)-2-(4-(6-fluoro-7-(methylamino)-2,4-dioxo-1,2-dihydroquinazolin-3(4H)-yl)benzamido)acetate]	4.52 to 5.00	6.30 to 7.30
CNc1cc2c(cc1F)C(=O)N(c1ccc(CNC(CC(=O)O)c3ccc(Cl)s3)cc1)CO2 (stereo not shown) [Compound 106, 3-(5-chlorothiophen-2-yl)-3-(4-(6-fluoro-7-(methylamino)-4-oxo-2H-benzo[e][1,3]oxazin-3(4H)-yl)benzylamino)propanoic acid]	< 4.52	6.30 to 7.30
CNc1cc2c(cc1F)C(=O)N(c1ccc(C(=O)NC(c3nnn[nH]3)c3ccc(Cl)s3)cc1)CO2 (stereo not shown) [Compound 54, N-((5-chlorothiophen-2-yl)(1H-tetrazol-5-yl)methyl)-4-(6-fluoro-7-(methylamino)-4-oxo-2H-benzo[e][1,3]oxazin-3(4H)-yl)benzamide]	4.52 to 5.00	> 7.30
CNc1cc2[nH]c(=O)n(-c3ccc(C(=O)N[C@@H](c4noc(=O)[nH]4)c4ccc(Cl)s4)cc3)c(=O)c2cc1F [Compound 45, (S)-N-((5-chlorothiophen-2-yl)(5-oxo-4,5-dihydro-1,2,4-oxadiazol-3-yl)methyl)-4-(6-fluoro-7-(methylamino)-2,4-dioxo-1,2-dihydroquinazolin-3(4H)-yl)benzamide]	> 5.00	> 7.30
CNc1cc2c(cc1F)C(=O)N(c1ccc(C(=O)NC(c3nnn(C)n3)c3ccc(Cl)s3)cc1)CO2 (stereo not shown) [Compound 74, N-((5-chlorothiophen-2-yl)(2-methyl-2H-tetrazol-5-yl)methyl)-4-(6-fluoro-7-(methylamino)-4-oxo-2H-benzo[e][1,3]oxazin-3(4H)-yl)benzamide]	< 4.52	6.30 to 7.30
CNc1cc2[nH]c(=O)n(-c3ccc(C(=O)NC(c4nnn[nH]4)c4ccc(Cl)s4)cc3)c(=O)c2cc1F (stereo not shown) [Compound 7, N-((5-chlorothiophen-2-yl)(1H-tetrazol-5yl)methyl)-4-(6-fluoro-7-(methylamino)-2,4-dioxo-1,2-dihydroquinazolin-3(4H)-yl)benzamide]	> 5.00	> 7.30
CNc1cc2[nH]c(=O)n(-c3ccc(C(=O)NC(C(N)=O)c4ccc(Cl)s4)cc3)c(=O)c2cc1F (stereo not shown) [Compound 47, N-(2-amino-1-(5-chlorothiophen-2-yl)-2-oxoethyl)-4-(6-fluoro-7-(methylamino)-2,4-dioxo-1,2-dihydroquinazolin-3(4H)-yl)benzamide]	> 5.00	6.30 to 7.30
CNc1cc2c(cc1F)C(=O)N(c1ccc(C(=O)NC(C(N)=O)c3ccc(Cl)s3)cc1)CO2 (stereo not shown) [Compound 70]	4.52 to 5.00	6.30 to 7.30
CNc1cc2c(cc1F)C(=O)N(c1ccc(CNC(C(=O)O)c3ccc(Cl)s3)cc1)CO2 (stereo not shown) [Compound 105, 2-(5-chlorothiophen-2-yl)-2-(4-(6-fluoro-7-(methylamino)-4-oxo-2H-benzo[e][1,3]oxazin-3(4H)-yl)benzylamino)acetic acid]	< 4.52	6.30 to 7.30
O=C(NCc1ccc(Cl)s1)c1ccc(-n2c(=O)[nH]c3cc(NCc4ccc(F)cc4)ccc3c2=O)cc1 [Compound 1, N-((5-chlorothiophen-2-yl)methyl)-4-(7-(4-fluorobenzylamino)-2,4-dioxo-1,2-dihydroquinazolin-3(4H)-yl)benzamide]	< 4.52	6.30 to 7.30
CNc1cc2c(cc1F)C(=O)N(c1ccc(C(=O)NC(c3cccc(Cl)c3)c3nnn[nH]3)cc1)CO2 (stereo not shown) [Compound 80, N-((3-chlorophenyl)(1H-tetrazol-5-yl)methyl)-4-(6-fluoro-7-(methylamino)-4-oxo-2H-benzo[e][1,3]oxazin-3(4H)-yl)benzamide]	< 4.52	6.30 to 7.30
CNc1cc2c(cc1F)C(=O)N(c1ccc(C(=O)NC(c3noc(=O)[nH]3)c3ccc(Cl)s3)cc1)CO2 (stereo not shown) [Compound 71, N-((5-chlorothiophen-2-yl)(5-oxo-4,5-dihydro-1,2,4-oxadiazol-3-yl)methyl)-4-(6-fluoro-7-(methylamino)-4-oxo-2H-benzo[e][1,3]oxazin-3(4H)-yl)benzamide]	4.52 to 5.00	> 7.30
